Test results from ChEMBL document CHEMBL5608209, “Biological and structural investigation of tetrahydro-β-carboline-based selective HDAC6 inhibitors with improved stability” (Eur J Med Chem, 2024).
Blank lines part the entries; values can stand above or below the molecule they belong to. The source made the active and inactive calls. The calls are words filed in the database; no cut-off is given here.

Experiments:
[1] = test system: MV4-11; assay: Antiproliferative activity against human MV4-11 cells assessed as cell viability by measuring amount of ATP after 72 hrs incubation by CellTiteer-Glo Cell viability assay; conditions: MV4-11, 72 h
[2] = molecular target: T1, Protein deacetylase HDAC6 (Homo sapiens, UniProt Q9UBN7); assay: Inhibition of purified recombinant human HDAC6 assessed as inhibition constant using residues 379-382 (RHKK(Ac)AMC) fluorogenic substrate p53 fluorogenic peptide as substrate measured after 90 mins by fluorescence assay
T1 sequence (Q9UBN7 whole entry): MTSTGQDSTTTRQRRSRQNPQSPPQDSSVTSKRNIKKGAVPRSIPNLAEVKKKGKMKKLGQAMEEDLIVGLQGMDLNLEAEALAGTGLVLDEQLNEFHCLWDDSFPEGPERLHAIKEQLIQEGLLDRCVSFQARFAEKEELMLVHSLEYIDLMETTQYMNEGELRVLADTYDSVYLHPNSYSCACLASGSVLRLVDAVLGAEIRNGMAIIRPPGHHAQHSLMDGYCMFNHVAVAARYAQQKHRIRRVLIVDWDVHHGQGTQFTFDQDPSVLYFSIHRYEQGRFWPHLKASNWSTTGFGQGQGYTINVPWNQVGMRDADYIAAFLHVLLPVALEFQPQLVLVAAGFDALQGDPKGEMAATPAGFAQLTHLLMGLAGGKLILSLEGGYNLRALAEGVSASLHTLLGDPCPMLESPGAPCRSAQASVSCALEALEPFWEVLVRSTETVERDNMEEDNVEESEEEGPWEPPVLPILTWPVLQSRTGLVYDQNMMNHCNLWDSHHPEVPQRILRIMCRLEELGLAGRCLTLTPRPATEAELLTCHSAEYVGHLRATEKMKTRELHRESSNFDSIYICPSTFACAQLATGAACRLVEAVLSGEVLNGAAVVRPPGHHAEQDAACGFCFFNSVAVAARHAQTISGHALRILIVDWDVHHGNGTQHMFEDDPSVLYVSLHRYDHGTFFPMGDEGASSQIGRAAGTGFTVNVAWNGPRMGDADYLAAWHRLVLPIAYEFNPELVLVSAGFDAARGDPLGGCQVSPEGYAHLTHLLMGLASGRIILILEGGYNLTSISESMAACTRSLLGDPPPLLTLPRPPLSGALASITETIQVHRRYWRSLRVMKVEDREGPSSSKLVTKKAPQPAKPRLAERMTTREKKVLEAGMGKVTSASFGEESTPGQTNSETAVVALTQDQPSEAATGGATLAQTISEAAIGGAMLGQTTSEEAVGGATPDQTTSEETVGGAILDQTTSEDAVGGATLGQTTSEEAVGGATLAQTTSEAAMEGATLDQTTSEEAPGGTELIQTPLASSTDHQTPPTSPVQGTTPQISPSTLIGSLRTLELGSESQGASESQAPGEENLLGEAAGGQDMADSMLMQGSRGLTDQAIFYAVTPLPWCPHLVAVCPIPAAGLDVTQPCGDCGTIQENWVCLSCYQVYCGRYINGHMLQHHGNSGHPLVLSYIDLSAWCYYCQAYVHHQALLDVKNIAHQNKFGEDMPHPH

[3] = molecular target: Histone deacetylase 3 (Homo sapiens, UniProt O15379)
Description: Inhibition of purified recombinant human HDAC3 assessed as inhibition constant using fluorogenic substrate ZMAL (Z-Lys(Ac)-AMC as substrate measured after 90 mins by fluorescence microplate reader

[4] = molecular target: T2, Polyamine deacetylase HDAC10 (Homo sapiens, UniProt Q969S8); assay: Inhibition of purified recombinant human HDAC10 assessed as inhibition constant using residues 379-382 (RHKK(Ac)AMC) fluorogenic substrate p53 fluorogenic peptide as substrate measured after 90 mins by fluorescence assay
T2 sequence (Q969S8 whole entry): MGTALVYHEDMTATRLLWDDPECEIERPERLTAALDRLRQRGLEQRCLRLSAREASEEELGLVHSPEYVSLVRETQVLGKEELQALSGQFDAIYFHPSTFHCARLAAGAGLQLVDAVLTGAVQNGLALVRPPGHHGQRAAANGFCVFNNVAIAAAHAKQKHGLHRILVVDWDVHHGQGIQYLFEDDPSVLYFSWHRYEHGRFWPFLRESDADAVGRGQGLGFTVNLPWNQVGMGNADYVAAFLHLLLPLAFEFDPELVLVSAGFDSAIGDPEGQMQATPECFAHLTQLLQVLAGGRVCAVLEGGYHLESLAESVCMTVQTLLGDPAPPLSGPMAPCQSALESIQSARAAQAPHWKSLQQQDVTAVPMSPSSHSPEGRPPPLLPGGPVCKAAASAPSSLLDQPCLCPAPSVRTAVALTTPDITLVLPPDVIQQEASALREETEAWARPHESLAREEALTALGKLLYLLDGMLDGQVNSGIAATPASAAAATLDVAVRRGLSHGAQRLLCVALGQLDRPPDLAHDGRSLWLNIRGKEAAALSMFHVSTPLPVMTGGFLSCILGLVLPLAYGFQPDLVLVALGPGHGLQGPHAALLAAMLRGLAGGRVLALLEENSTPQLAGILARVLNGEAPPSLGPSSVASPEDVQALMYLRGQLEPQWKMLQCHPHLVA

[5] = in vitro; conditions: human, plasma diluted in PBS (1:2 v/v)
Description: Stability in human plasma in PBS (1:2 v/v) assessed as intact compound at 37 degC measured after 24 hrs

[6] = in vitro; conditions: human, plasma diluted in PBS (1:2 v/v); remark: listed apart in the source
Description: Stability in human plasma in PBS (1:2 v/v) assessed as intact compound at 37 degC measured after 72 hrs

[7] = molecular target: T3, Histone deacetylase 8 (Homo sapiens, UniProt Q9BY41); assay: Inhibition of purified recombinant human HDAC8 assessed as inhibition constant using residues 379-382 (RHKK(Ac)AMC) fluorogenic substrate p53 fluorogenic peptide as substrate measured after 90 mins by fluorescence assay
T3 sequence (Q9BY41 whole entry): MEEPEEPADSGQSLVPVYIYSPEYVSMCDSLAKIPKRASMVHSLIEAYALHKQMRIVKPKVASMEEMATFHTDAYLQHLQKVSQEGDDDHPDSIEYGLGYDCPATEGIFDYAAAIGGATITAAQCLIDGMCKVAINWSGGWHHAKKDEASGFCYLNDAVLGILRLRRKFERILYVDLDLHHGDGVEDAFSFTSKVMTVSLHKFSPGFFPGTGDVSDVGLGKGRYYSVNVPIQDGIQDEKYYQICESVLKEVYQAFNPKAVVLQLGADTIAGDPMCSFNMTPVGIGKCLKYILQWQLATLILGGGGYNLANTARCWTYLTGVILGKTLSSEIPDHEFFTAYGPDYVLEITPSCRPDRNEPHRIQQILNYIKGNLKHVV

[8] = molecular target: T4, Protein deacetylase HDAC6 (Homo sapiens) (UniProt Q9UBN7); conditions: MV4-11, dose 5.0 nM, time 24.0 hrs
T4 sequence (whole entry): T1 sequence (Q9UBN7 whole entry)

[9] = molecular target: T4, Protein deacetylase HDAC6 (Homo sapiens); conditions: MV4-11, dose 500.0 nM, time 24.0 hrs
[10] = molecular target: T4, Protein deacetylase HDAC6 (Homo sapiens); conditions: MV4-11, dose 50.0 nM, time 24.0 hrs

Histone deacetylase 3, sequence (O15379 whole entry, the tested form may be a part): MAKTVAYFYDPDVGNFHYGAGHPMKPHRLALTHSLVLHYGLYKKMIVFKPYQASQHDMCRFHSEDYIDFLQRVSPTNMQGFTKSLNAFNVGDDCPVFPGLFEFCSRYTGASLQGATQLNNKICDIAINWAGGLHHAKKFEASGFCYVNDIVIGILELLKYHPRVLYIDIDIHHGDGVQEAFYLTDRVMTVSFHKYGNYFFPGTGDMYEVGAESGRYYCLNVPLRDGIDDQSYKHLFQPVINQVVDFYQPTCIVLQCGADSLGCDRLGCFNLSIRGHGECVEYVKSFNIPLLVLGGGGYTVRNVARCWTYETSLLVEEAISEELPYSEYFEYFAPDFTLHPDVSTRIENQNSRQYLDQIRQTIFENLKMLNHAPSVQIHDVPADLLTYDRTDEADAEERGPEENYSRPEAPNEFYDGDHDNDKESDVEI

SMILES: CC(/C=C/C(=O)NO)=C\[C@@H](C)C(=O)c1ccc(N(C)C)cc1 [TRICHOSTATIN]
- EC50 [1]: 15300 nM

SMILES: Cn1cc(CNCC2CCN(c3ncc(C(=O)NO)cn3)CC2)c2ccccc21 [QUISINOSTAT]
- Ki [4]: 1.49 nM

SMILES: O=C(CCCCCCNC(=O)c1cnc(N(c2ccccc2)c2ccccc2)nc1)NO [RICOLINOSTAT]
- EC50 [1]: 710 nM

The next lines start with the values.

- Ki [2]: 0.31 nM
- Ki [3]: 118 nM
SMILES: CN1C(=O)N2Cc3c(c4cc(O)ccc4n3Cc3ccc(C(=O)NO)cc3)C(c3cccs3)(C2)C1=O (racemic)

- Ki [2]: 0.44 nM
- Ki [3]: 384 nM
SMILES: CN1C(=O)N2Cc3c(c4cc(OCCN5CCOCC5)ccc4n3Cc3ccc(C(=O)NO)cc3)C(c3ccco3)(C2)C1=O (racemic)

- remaining at 24 h [5]: 91.4%
- remaining at 72 h [6]: 56.3%
SMILES: CN1C(=O)N2Cc3c(c4cc(OCCN5CCOCC5)ccc4n3Cc3ccc(C(=O)O)cc3)[C@](C)(C2)C1=O

- Ki [7]: 1090 nM
- Ki [2]: 1.25 nM
- Ki [3]: 675 nM
SMILES: CN1C(=O)N2Cc3c(c4cc(OCCN5CCOCC5)ccc4n3Cc3ccc(C(=O)NO)cc3)C(C3CCCCC3)(C2)C1=O (racemic)

- inhibition [8]: inactive
- inhibition [9]: inactive
- inhibition [10]: inactive
SMILES: CN1C(=O)C2CN(Cc3c2c2ccccc2n3Cc2ccc(C(=O)NO)cc2)C1=O (stereo not given)
